From patent US5254533A, “Elfamycin” (Rhone-Poulenc Rorer S.A., priority 1990, dated 1993)
“Also recorded” adds a separate entry of the source.

Key:
[1] = tested on: Staphylococcus aureus 209P; assay: MIC, antibacterial activity (agar dilution); format: cell-based; settings: Mueller Hinton Agar, about 18 h at about 37° C
[2] = tested on: Staphylococcus aureus S tA 1; assay: MIC, antibacterial activity (agar dilution); format: cell-based; settings: STA1, Mueller Hinton Agar, about 18 h at about 37° C
[3] = tested on: Staphylococcus aureus S tA 2; assay: MIC, antibacterial activity (agar dilution); format: cell-based; settings: STA2, Mueller Hinton Agar, about 18 h at about 37° C
[4] = tested on: Staphylococcus aureus Weichbrodt; assay: MIC, antibacterial activity (agar dilution); format: cell-based; settings: Mueller Hinton Agar, about 18 h at about 37° C
[5] = tested on: Staphylococcus epidermis; assay: MIC, antibacterial activity (agar dilution); format: cell-based; settings: Mueller Hinton Agar, about 18 h at about 37° C
[6] = tested on: Staphylococcus faecalis; assay: MIC, antibacterial activity (agar dilution); format: cell-based; settings: Mueller Hinton Agar, about 18 h at about 37° C
[7] = tested on: Streptococcus bovis 3; assay: MIC, antibacterial activity (agar dilution); format: cell-based; settings: Streptococcus equinus, Mueller Hinton Agar, about 18 h at about 37° C
[8] = tested on: Streptococcus bovis 5; assay: MIC, antibacterial activity (agar dilution); format: cell-based; settings: Streptococcus equinus, Mueller Hinton Agar, about 18 h at about 37° C
[9] = tested on: Streptococcus uberis 3; assay: MIC, antibacterial activity (agar dilution); format: cell-based; settings: Mueller Hinton Agar, about 18 h at about 37° C
[10] = tested on: Streptococcus uberis 8; assay: MIC, antibacterial activity (agar dilution); format: cell-based; settings: Mueller Hinton Agar, about 18 h at about 37° C
[11] = tested on: Escherichia coli INRA ECi; assay: MIC, antibacterial activity (agar dilution); format: cell-based; settings: Mueller Hinton Agar, about 18 h at about 37° C
[12] = tested on: Klebsiella pneumoniae Caroli; assay: MIC, antibacterial activity (agar dilution); format: cell-based; settings: Mueller Hinton Agar, about 18 h at about 37° C
[13] = tested on: Enterobacter cloacae IP 085; assay: MIC, antibacterial activity (agar dilution); format: cell-based; settings: IP085, Mueller Hinton Agar, about 18 h at about 37° C
[14] = tested on: Pseudomonas aeruginosa IP A 237; assay: MIC, antibacterial activity (agar dilution); format: cell-based; settings: IPA237, Mueller Hinton Agar, about 18 h at about 37° C
[15] = tested on: Pasterella multocida IP; assay: MIC, antibacterial activity (agar dilution); format: cell-based; settings: Mueller Hinton Agar, about 18 h at about 37° C
[16] = tested on: Proteus vulgaris IP A272; assay: MIC, antibacterial activity (agar dilution); format: cell-based; settings: IPA272, Mueller Hinton Agar, about 18 h at about 37° C
[17] = tested on: Proteus mirabilis Villette; assay: MIC, antibacterial activity (agar dilution); format: cell-based; settings: Mueller Hinton Agar, about 18 h at about 37° C
[18] = tested on: Bacteroides fragilis ATCC 25285; assay: MIC, antibacterial activity (agar dilution); format: cell-based; settings: ATCC25285, anaerobic, Mueller Hinton Agar + 2% Fildes, about 48 h at about 37° C
[19] = tested on: Bacteroides fragilis 479R; assay: MIC, antibacterial activity (agar dilution); format: cell-based; settings: anaerobic, Mueller Hinton Agar + 2% Fildes, about 48 h at about 37° C
[20] = tested on: Bacteroides melaninogenicus ATCC 15930; assay: MIC, antibacterial activity (agar dilution); format: cell-based; settings: Prevotella intermedia, ATCC15930; anaerobic, Mueller Hinton Agar + 2% Fildes, about 48 h at about 37° C
[21] = Use as a growth factor in weaned piglets (Example 5); format: in vivo, weaned Large-White Belgian Landrace crossed piglets; settings: for Initial weight: start of period 14-28 days; for Index of consumption: consumption/weight gain ratio
[22] = Use as a growth factor in piglets (Example 6); format: in vivo, weaned Large-White Belgian Landrace crossed piglets; settings: for Final weight: control 24.7
Excerpt: 130 weaned Large-White Belgian Landrace crossed piglets were used. The experiment began 2 weeks after weaning of the animals, i.e. at a mean age of 42 days.
The animals received the experimental feed ad libitum in the form of granules 2.5 mm in diameter.
The animals were weighed at the beginning, middle and end of the experiment. The consumptions were noted every week.
Tables 7, 8 and 9 respectively show the percentage composition and the characteristics of the diets, the percentage composition of the CMV and the percentage composition of the premixes.
The results are shown in Table 10 for the period 0-14 days, Table 11 for the period 14-28 days and Table 12 for the period 0-28 days.

With `C/C=C\C=C\C1OC(O)(C(CC)C(=O)NC/C=C/C=C(\C)C(OC)C(C)C2CC(O)C(/C=C/C=C/C=C/C(=O)O)O2)C(O)C(O)C1(C)C` (centres unmarked) [formula (II)] the MIC [1] was over 300 µg/mL, the MIC [2] was over 300 µg/mL and the MIC [3] was over 300 µg/mL. For the same compound, the MIC [4] was over 300 µg/mL, the MIC [5] was over 300 µg/mL and the MIC [6] was over 300 µg/mL. It also gave an MIC [7] of over 300 µg/mL, an MIC [8] of 25 µg/mL and an MIC [9] of 50 µg/mL. For the same compound, the MIC [10] was 100 µg/mL, the MIC [11] was over 300 µg/mL and the MIC [12] was over 300 µg/mL. For the same compound, the MIC [13] was over 300 µg/mL, the MIC [14] was over 300 µg/mL and the MIC [15] was over 300 µg/mL. It also gave an MIC [16] of over 300 µg/mL, an MIC [17] of over 300 µg/mL and an MIC [18] of over 100 µg/mL. For the same compound, the MIC [19] was over 100 µg/mL, the MIC [20] was over 100 µg/mL and the Weight gain ([21]; 40 ppm in feed, 0-14 days, control 329) was 360 g/day. The Consumption ([21]; 40 ppm in feed, 0-14 days, control 614) was 625 g/day, the Weight gain ([21]; 40 ppm in feed, 0-28 days, control 445) was 490 g/day and the Consumption ([21]; 40 ppm in feed, 0-28 days, control 822) was 847 g/day. For the same compound, the Weight gain ([21]; 40 ppm in feed, 14-28 days, control 560) was 620 g/day, the Consumption ([21]; 40 ppm in feed, 14-28 days, control 1031) was 1068 g/day and the “Intermediate Weight” value ([21]; 40 ppm in feed, Table 4, 0-14 days, control 15.3) was 15.8 kg. The “Intermediate Weight” value ([21]; 40 ppm in feed, Table 5, 14-28 days, control 23.1) was 24.5 kg, the “Intermediate Weight” value ([21]; 40 ppm in feed, Table 6, 0-28 days, control 23.1) was 24.5 kg and the Initial weight ([21]; 40 ppm in feed, control 15.3) was 15.8 kg. The “improvement in growth relative to the basic diet” value ([21]; 40 ppm, overall period 0-28 days) was 10%, the “performances of the animals (in words)” value ([21]; 60 ppm compared with the same product at 40 ppm, 0-28 days) was “somewhat behind those observed with the same product at 40 ppm” and the Weight gain ([21]; 60 ppm in feed, 0-14 days, control 329) was 338 g/day. It also gave a Consumption ([21]; 60 ppm in feed, 0-14 days, control 614) of 599 g/day, a Weight gain ([21]; 60 ppm in feed, 0-28 days, control 445) of 463 g/day and a Consumption ([21]; 60 ppm in feed, 0-28 days, control 822) of 812 g/day. The Weight gain ([21]; 60 ppm in feed, 14-28 days, control 560) was 588 g/day, the Consumption ([21]; 60 ppm in feed, 14-28 days, control 1031) was 1026 g/day and the “Intermediate Weight” value ([21]; 60 ppm in feed, Table 4, 0-14 days, control 15.3) was 15.3 kg. For the same compound, the “Intermediate Weight” value ([21]; 60 ppm in feed, Table 5, 14-28 days, control 23.1) was 23.5 kg, the “Intermediate Weight” value ([21]; 60 ppm in feed, Table 6, 0-28 days, control 23.1) was 23.5 kg and the Initial weight ([21]; 60 ppm in feed, control 15.3) was 15.3 kg. It also gave an Index of consumption ([21]; 40 ppm in feed, 0-14 days, control 1.88) of 1.77, an Index of consumption ([21]; 40 ppm in feed, 0-28 days, control 1.85) of 1.73 and an Index of consumption ([21]; 40 ppm in feed, 14-28 days, control 1.86) of 1.73. For the same compound, the Index of consumption ([21]; 60 ppm in feed, 0-14 days, control 1.88) was 1.78, the Index of consumption ([21]; 60 ppm in feed, 0-28 days, control 1.85) was 1.75 and the Index of consumption ([21]; 60 ppm in feed, 14-28 days, control 1.86) was 1.74. The “effect on index of consumption (in words)” value ([21]; overall period 0-28 days) was “improved quite significantly”, the “effect on consumption (in words)” value ([21]; overall period 0-28 days, listed as product II) was “did not bring about a significant improvement in consumption; also recorded: comparable to tylosin” and the Index of consumption ([22]; 10 ppm in feed, 0-14 days, control 1.76) was 1.70. It also gave a Weight gain ([22]; 10 ppm in feed, 0-14 days, control 368) of 418 g/day, a Consumption ([22]; 10 ppm in feed, 0-14 days, control 645) of 694 g/day and an Index of consumption ([22]; 10 ppm in feed, 0-28 days, control 1.80) of 1.72. For the same compound, the Weight gain ([22]; 10 ppm in feed, 0-28 days, control 474) was 533 g/day, the Consumption ([22]; 10 ppm in feed, 0-28 days, control 852) was 914 g/day and the Index of consumption ([22]; 10 ppm in feed, 14-28 days, control 1.84) was 1.75. The Weight gain ([22]; 10 ppm in feed, 14-28 days, control 579) was 648 g/day, the Consumption ([22]; 10 ppm in feed, 14-28 days, control 1059) was 1133 g/day and the Final weight ([22]; 10 ppm in feed, Table 11, 14-28 days) was 26.4 kg. The Final weight ([22]; 10 ppm in feed, Table 12, 0-28 days) was 26.4 kg, the Index of consumption ([22]; 20 ppm in feed, 0-14 days, control 1.76) was 1.61 and the Weight gain ([22]; 20 ppm in feed, 0-14 days, control 368) was 430 g/day. The Consumption ([22]; 20 ppm in feed, 0-14 days, control 645) was 689 g/day, the Index of consumption ([22]; 20 ppm in feed, 0-28 days, control 1.80) was 1.69 and the Weight gain ([22]; 20 ppm in feed, 0-28 days, control 474) was 547 g/day. It also gave a Consumption ([22]; 20 ppm in feed, 0-28 days, control 852) of 927 g/day, an Index of consumption ([22]; 20 ppm in feed, 14-28 days, control 1.84) of 1.75 and a Weight gain ([22]; 20 ppm in feed, 14-28 days, control 579) of 664 g/day. For the same compound, the Consumption ([22]; 20 ppm in feed, 14-28 days, control 1059) was 1164 g/day, the Final weight ([22]; 20 ppm in feed, Table 11, 14-28 days) was 26.8 kg and the Final weight ([22]; 20 ppm in feed, Table 12, 0-28 days) was 26.8 kg. It also gave an Index of consumption ([22]; 40 ppm in feed, 0-14 days, control 1.76) of 1.70, a Weight gain ([22]; 40 ppm in feed, 0-14 days, control 368) of 416 g/day and a Consumption ([22]; 40 ppm in feed, 0-14 days, control 645) of 701 g/day. The Index of consumption ([22]; 40 ppm in feed, 0-28 days, control 1.80) was 1.70, the Weight gain ([22]; 40 ppm in feed, 0-28 days, control 474) was 532 g/day and the Consumption ([22]; 40 ppm in feed, 0-28 days, control 852) was 900 g/day. It also gave an Index of consumption ([22]; 40 ppm in feed, 14-28 days, control 1.84) of 1.70, a Weight gain ([22]; 40 ppm in feed, 14-28 days, control 579) of 648 g/day and a Consumption ([22]; 40 ppm in feed, 14-28 days, control 1059) of 1099 g/day. For the same compound, the Final weight ([22]; 40 ppm in feed, Table 11, 14-28 days) was 26.4 kg and the Final weight ([22]; 40 ppm in feed, Table 12, 0-28 days) was 26.4 kg.
